Source: patent US20210077562A1, “ETBR ANTAGONIST COMPOUNDS, COMPOSITIONS, AND USES” (ENB Therapeutics, Inc., priority 2018, published 2021)

What was measured:
[1] = cited from earlier work
[2] = tested on: V600E+ (BRAF mutated) SM1 tumor; assay: SM1 tumor model, in vivo tumor growth curve over 21 days; parameters: species or system C57BL/6 mice
Text: In this study 6-8 week old female C57BL/6 mice were inoculated with SM1 tumor fragments (TME* components present).

Structure (SMILES)	degradation in plasma [1]	tumor growth (FIG. 3), standard combination ([2]; dabrafenib 30 mg/kg daily by oral gavage + immune checkpoint inhibitors 10 mg/kg Q4D IP, 21 days)	efficacy on addition to anti-PD1/ETBR antagonist combination ([2]; three-part combination therapy)
CCCC[C@@H](NC(=O)[C@@H](Cc1cn(C(=O)OC)c2ccccc12)NC(=O)[C@H](CC(C)(C)C)NC(=O)N1[C@H](C)CCC[C@@H]1C)C(=O)O [BQ788, (2R)-2-[[(2R)-2-[[(2S)-2-[[(2R,6S)-2,6-dimethylpiperidine-1-carbonyl]amino]-4,4-dimethylpentanoyl]amino]-3-(1-methoxycarbonylindol-3-yl)propanoyl]amino]hexanoic acid]	rapidly degraded in plasma	–	–
CC(C)(C)c1nc(-c2cccc(NS(=O)(=O)c3c(F)cccc3F)c2F)c(-c2ccnc(N)n2)s1 [dabrafenib]	–	failed to shrink tumors but demonstrated intermediate tumor growth inhibition	impairs efficacy
